Read-outs that look alike come from different tables or passages of the source. Starred links: 1 amine or outer side, 2 acyl side, 3 side chain; linkers in the order of their positions; H or OH if unused. Positions of bridges follow the written chain, without caps; N, C: chain ends. Non-standard residues stand in square brackets, D forms with d. Residues, ends and D or L forms follow the SMILES beside them. ξ: configuration not given here. *: point of attachment. X3 = O=C(C(N[*:1])c1ccc(OC2OC(CO)C(O)C(O)C2OC2OC(CO)C(O)C(O)C2O)cc1)[*:2]; ξPhg(3-Cl-4-OH) = NC(C(=O)O)c1ccc(O)c(Cl)c1; X2 = NC(=O)C(O[*:3])C(N[*:1])C(=O)[*:2]; Hpg = N[CH](C(=O)O)c1ccc(O)cc1; Orn = NCCC[CH](N)C(=O)O; X1 = CC(C)CC=CC=CC(=O)*
How the values were obtained:
MraY/MurX = MraY/MurX (Mycolicibacterium smegmatis, UniProt A0R019); assay: Substrate tolerance of MurX/MraY, P-60 of M. smegmatis; type: biochemical, Mycobacterium smegmatis; settings: P-60 of wild-type M. smegmatis (ATCC607)
MsmegMurG [1] = molecular target: T1, MsmegMurG (Mycolicibacterium smegmatis, UniProt A0R016); assay: biochemical; set-up: species or system Mycobacterium smegmatis; settings: for inhibition at 10 µM / inhibition at 50 µM / inhibition at 100 µM: read-out: (MsmegMurG) inhibition (%)
MurG = molecular target: T2, MurG (Mycolicibacterium smegmatis, UniProt A0R016); assay: MurG kinetic parameters and mode of inhibition, enzyme source not stated; type: biochemical
T2 sequence (A0R016 1-385): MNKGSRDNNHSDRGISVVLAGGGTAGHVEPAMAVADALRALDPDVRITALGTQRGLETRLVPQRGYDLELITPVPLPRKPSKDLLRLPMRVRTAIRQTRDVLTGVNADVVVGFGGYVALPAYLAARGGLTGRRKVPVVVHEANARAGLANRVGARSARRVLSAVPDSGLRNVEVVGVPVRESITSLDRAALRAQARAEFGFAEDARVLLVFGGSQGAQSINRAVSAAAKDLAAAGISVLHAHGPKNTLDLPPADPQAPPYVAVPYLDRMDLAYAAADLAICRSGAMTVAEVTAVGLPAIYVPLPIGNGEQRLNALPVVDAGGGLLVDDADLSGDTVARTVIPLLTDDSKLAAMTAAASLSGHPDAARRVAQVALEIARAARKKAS

HyMurG [2] = molecular target: T3, HyMurG (Hydrogenivirga sp. 128-5-R1-1, UniProt A8US35); assay: HPLC-based MurG assay, dose-response, HyMurG; type: biochemical; settings: read-out: IC50 HyMurG; HPLC-based method; average of two-three experiments
MsmegMraY = MsmegMraY (Mycolicibacterium smegmatis, UniProt A0R019); assay: biochemical; type: biochemical, Mycobacterium smegmatis
[3] = test system: M. smegmatis (ATCC607) and M. tuberculosis (H37Rv); assay: Antimycobacterial activity, text summary for both species; type: cell-based, Mycobacterium spp.; settings: 50 μg/mL
MsmegMurG [4] = molecular target: T1, MsmegMurG; assay: biochemical; set-up: species or system Mycobacterium smegmatis
in vitro = settings: African green monkey
HyMurG [5] = molecular target: T3, HyMurG; assay: UV-Vis-based MurG assay; type: biochemical; settings: for IC50: read-out: IC50 against HyMurG via UV-Vis spectrometry, dose-response curves
Vero cell [6] = test system: Vero cell
M. tuberculosis (H37Rv) = assay: MIC determination, M. tuberculosis; type: cell-based, Mycobacterium tuberculosis; settings: 7H9 containing OADC; 14 days
M. smegmatis (ATCC607) = assay: MIC determination, resazurin, M. smegmatis; type: cell-based, Mycobacterium smegmatis; settings: 7H9 with 0.5% tween 80, 3 days at 37 °C
[7] = Cytotoxicity against Vero cells; settings: African green monkey
[8] = molecular target: MurG, P-60 (M. smegmatis) (Mycolicibacterium smegmatis, UniProt A0R016); assay: Competition reaction of UDP-GlcN-C6-FITC; type: biochemical, Mycobacterium smegmatis
MurG of M. smegmatis = molecular target: T4, MurG of M. smegmatis (Mycolicibacterium smegmatis, UniProt A0R016); assay: Kinetic studies of MurG of M. smegmatis; type: biochemical, Mycobacterium smegmatis; settings: P-60 of M. smegmatis; donor 8
T4 sequence (A0R016 1-385): T2 sequence (A0R016 1-385)

HyMurG [9] = molecular target: T3, HyMurG; assay: Kinetic studies with HyMurG; type: biochemical
HyMraY = assay: Kinetic studies with HyMraY; type: biochemical, Hydrogenivirga sp.
[10] = cited from earlier work
Vero cell [11] = assay: Cytotoxicity against Vero cells
[12] = read-out: HthermMurG inhibition (%)
[13] = read-out: IC50 MsmegMraY, HPLC-based method, average of two-three experiments
[14] = read-out: IC50 MsmegMurG, HPLC-based method, average of two-three experiments

T3 sequence (A8US35 1-350): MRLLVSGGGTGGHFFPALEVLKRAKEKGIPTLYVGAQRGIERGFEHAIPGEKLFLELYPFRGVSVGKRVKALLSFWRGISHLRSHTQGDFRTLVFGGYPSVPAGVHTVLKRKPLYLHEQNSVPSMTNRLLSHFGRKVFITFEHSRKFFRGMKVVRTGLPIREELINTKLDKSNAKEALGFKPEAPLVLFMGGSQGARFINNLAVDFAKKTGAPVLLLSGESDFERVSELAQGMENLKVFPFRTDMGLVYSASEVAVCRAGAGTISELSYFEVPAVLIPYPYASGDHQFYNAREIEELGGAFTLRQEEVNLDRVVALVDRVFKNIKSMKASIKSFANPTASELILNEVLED
MsmegMraY, sequence (A0R019 whole entry): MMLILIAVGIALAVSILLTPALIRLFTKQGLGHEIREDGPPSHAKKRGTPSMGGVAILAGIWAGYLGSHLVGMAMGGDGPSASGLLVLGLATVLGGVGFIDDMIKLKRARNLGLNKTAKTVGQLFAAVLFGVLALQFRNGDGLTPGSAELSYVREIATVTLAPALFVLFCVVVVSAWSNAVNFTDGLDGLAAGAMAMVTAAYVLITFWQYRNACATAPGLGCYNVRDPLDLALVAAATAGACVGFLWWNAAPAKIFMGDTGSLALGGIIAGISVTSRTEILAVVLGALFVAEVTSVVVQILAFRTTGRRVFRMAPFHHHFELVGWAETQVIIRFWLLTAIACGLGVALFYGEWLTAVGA
MraY/MurX, sequence (A0R019 whole entry): as above

For `C/C(=C/COP(=O)(O)O)CCCC(C)CCCC(C)CCCC(C)C` (centres unmarked) [(2Z)-phytyl phosphate], the “Formation of lipid I-N^ε-derivatives” value (MraY/MurX) was “did not provide the corresponding lipid I derivatives”.
`C[C@@H]([C@H](N)C(=O)N[C@H](C(=O)O)[C@H]1O[C@@H](n2ccc(=O)[nH]c2=O)[C@H](O)[C@@H]1O)[C@H](O)c1ccc(O)cn1` [Nikkomycin Z, nikkomycin Z] showed an IC50 (MsmegMurG [1]) of 9.5 µM, an inhibition at 10 µM (MsmegMurG [1]) of 35% and an inhibition at 50 µM (MsmegMurG [1]) of 45%. The inhibition at 100 µM (MsmegMurG [1]) was 93%, the “Mode of MurG inhibition” value (MurG) was “competitive inhibitory activity” and the IC50 (HyMurG [2]) was 8.7 µM. The IC50 (MsmegMraY) was greater than 100000 nM, the “Growth inhibition of M. smegmatis and M. tuberculosis” value [3] was “did not inhibit growth” and the IC50 (MsmegMurG [4]) was 9.5 µM. For the same compound, the IC50 (in vitro) was greater than 100 µg/mL, the inhibition at 10 µM (HyMurG [5]; [12]) was 33% and the inhibition at 50 µM (HyMurG [5]; [12]) was 50%. For the same compound, the inhibition at 100 µM (HyMurG [5]; [12]) was 95% and the IC50 (HyMurG [5]) was 8.7 µM.
For `NC(=O)OC[C@H](O)[C@@H](O)[C@H](N)C(=O)N[C@H](C(=O)O)[C@H]1O[C@@H](n2cc(C(=O)O)c(=O)[nH]c2=O)[C@H](O)[C@@H]1O` [Polyoxin D, polyoxin D], the “Vero cell cytotoxicity IC50” value (Vero cell [6]) was greater than 100 µg/mL, the “M. tuberculosis (H37Rv) MIC” value (M. tuberculosis (H37Rv)) was greater than 50.0 µg/mL and the “M. smegmatis (ATCC607) MIC” value (M. smegmatis (ATCC607)) was greater than 50.0 µg/mL. For the same compound, the IC50 (HyMurG [2]) was 50.8 µM, the IC50 (MsmegMraY; [13]) was greater than 100000 nM and the “Growth inhibition of M. smegmatis and M. tuberculosis” value [3] was “did not inhibit growth”. For the same compound, the IC50 (MsmegMurG [4]; [14]) was 55 µM.
For `CC(C)CC=CC=CC(=O)NC(CC(N)=O)C(=O)NC1C(=O)NC(c2ccc(O)cc2)C(=O)NC(CCCN)C(=O)NC(C(C)O)C(=O)NC(c2ccc(O)cc2)C(=O)NC(c2ccc(O)cc2)C(=O)NC(C(C)O)C(=O)NC(Cc2ccccc2)C(=O)NC(CCCN)C(=O)NC(c2ccc(OC3OC(CO)C(O)C(O)C3OC3OC(CO)C(O)C(O)C3O)cc2)C(=O)NC(C(C)O)C(=O)NC(c2ccc(O)cc2)C(=O)NCC(=O)NC(CC(C)C)C(=O)NC(C)C(=O)NC(c2ccc(O)c(Cl)c2)C(=O)OC1C(N)=O` (centres unmarked) [Ramoplanin A2, ramoplanin A2] (X1-N[X2][Hpg][Orn]T[Hpg][Hpg]TF[Orn][X3]T[Hpg]GLA[ξPhg(3-Cl-4-OH)]; ester 2-C; configuration not given here), the IC50 [7] was greater than 100 µg/mL, the inhibition at 10 µM (MsmegMurG [1]) was 0% and the inhibition at 50 µM (MsmegMurG [1]) was 100%. For the same compound, the inhibition at 100 µM (MsmegMurG [1]) was 100%, the IC50 (HyMurG [2]) was 22.4 µM and the IC50 (MsmegMraY) was greater than 100000 nM. The IC50 (HyMurG [5]) was 22.4 µM.
With `CC(=O)N[C@H]1[C@@H](OP(=O)(O)OP(=O)(O)OC[C@H]2O[C@@H](n3ccc(=O)[nH]c3=O)[C@H](O)[C@@H]2O)O[C@H](CO)[C@@H](O)[C@@H]1O` [UDP-GlcNAc] the IC50 [8] was 8.4 µM and the “UDP-GlcNAc required for 100%-disappearance of 9-C55” value ([8]; 8 at 375 μM) was greater than 200 µM.
Work on `CN[C@H](CC(C)C)C(=O)N[C@H]1C(=O)N[C@@H](CC(N)=O)C(=O)N[C@H]2C(=O)N[C@H]3C(=O)N[C@H](C(=O)N[C@H](C(=O)O)c4cc(O)cc(O)c4-c4cc3ccc4O)[C@H](O)c3ccc(c(Cl)c3)Oc3cc2cc(c3O[C@@H]2O[C@H](CO)[C@@H](O)[C@H](O)[C@H]2O[C@H]2C[C@](C)(N)[C@H](O)[C@H](C)O2)Oc2ccc(cc2Cl)[C@H]1O` [Vancomycin, vancomycin] yielded an IC50 [7] greater than 100 µg/mL, an inhibition at 10 µM (MsmegMurG [1]) of 60% and an inhibition at 50 µM (MsmegMurG [1]) of 67%. The inhibition at 100 µM (MsmegMurG [1]) was 58%.
In the case of “C55-lipid II-N^ε-C6-dansyl-FITC [Compound 9-C55]”, the “Vmax for 9-C55 transformation” value (MurG of M. smegmatis) is reported as 0.56 µM/min and the “Vmax for 9-C55 transformation” value (HyMurG [9]; HyMurG, donor 8) is reported as 0.67 µM/min.
In the case of “Park’s nucleotide-N^ε-C6-dansylthiourea [Compound 1e]”, the “kcat of HyMraY for 1e” value (HyMraY) is reported as 0.38 s⁻¹.
UDP-Glucosamine-C6-FITC [Compound 8] gave a Km (MurG; read-out: Km for UDP-GlcN-C6-FITC probe (8), 2e-C55 75 μM) of 54 µM.
In the case of ristocetin A, the “Vero cell cytotoxicity IC50” value (Vero cell [6]) is given as greater than 100 µg/mL, the “Mode of HyMurG inhibition” value (HyMurG [9]; ristocetin A 5 μM, Michaelis-Menten plots) is given as “competes for the UDP-GlcNAc binding-site” and the “Binding affinity, times less than that of vancomycin” value [10] is given as “about 3.0 times”. The “M. tuberculosis (H37Rv) MIC” value (M. tuberculosis (H37Rv)) was 0.5 µg/mL, the “M. smegmatis (ATCC607) MIC” value (M. smegmatis (ATCC607)) was less than 0.39 µg/mL and the IC50 (HyMurG [2]) was 0.96 µM. The “Mode of MurX inhibition” value (MsmegMraY) was “non-competitive inhibition against Park’s nucleotide and prenyl-P”, the IC50 (MsmegMraY; [13]) was 810 nM and the IC50 (MsmegMurG [4]; [14]) was 1.4 µM.
In the case of tunicamycin, the “Vero cell cytotoxicity IC50” value (Vero cell [11]) is reported as 1.56 µg/mL, the “M. tuberculosis (H37Rv) MIC” value (M. tuberculosis (H37Rv)) is reported as 12.5 µg/mL and the “M. smegmatis (ATCC607) MIC” value (M. smegmatis (ATCC607)) is reported as 6.25 to 12.5 µg/mL. The IC50 (HyMurG [2]) was greater than 100 µM, the “MurX activity after addition of inhibitor” value (MsmegMraY; 50 μM, P-60, protocol B) was “terminated completely” and the IC50 (MsmegMraY; [13]) was 2900 nM. For the same compound, the IC50 (MsmegMurG [4]; [14]) was greater than 100 µM and the “Inhibition of MurG function / lipid II formation” value (HyMurG [5]; 50–100 μM) was “did not inhibit”.

Source: paper PMC7286788 (ACS infectious diseases, 2019)
